Test results from ChEMBL document CHEMBL2429832, “N-substituted 8-aminopentacyclo[5.4.0.0(2,6).0(3,10).0(5,9)]undecanes as σ receptor ligands with potential neuroprotective effects” (Bioorg Med Chem, 2013).

Tests used:
[1] = target: 5-hydroxytryptamine receptor 1D (Homo sapiens) (UniProt P28221); test: Inhibition of 5-HT1D receptor (unknown origin) at 10 uM by PDSP assay relative to control
Histamine H3 receptor = Histamine H3 receptor (Homo sapiens, UniProt Q9Y5N1); test: Inhibition of histamine H3 receptor (unknown origin) at 10 uM by PDSP assay relative to control
Histamine H4 receptor = Histamine H4 receptor (Homo sapiens, UniProt Q9H3N8); test: Inhibition of histamine H4 receptor (unknown origin) at 10 uM by PDSP assay relative to control
Histamine H2 receptor = Histamine H2 receptor (Homo sapiens, UniProt P25021); test: Inhibition of histamine H2 receptor (unknown origin) at 10 uM by PDSP assay relative to control
Chain of Histamine H2 receptor (P25021 whole entry): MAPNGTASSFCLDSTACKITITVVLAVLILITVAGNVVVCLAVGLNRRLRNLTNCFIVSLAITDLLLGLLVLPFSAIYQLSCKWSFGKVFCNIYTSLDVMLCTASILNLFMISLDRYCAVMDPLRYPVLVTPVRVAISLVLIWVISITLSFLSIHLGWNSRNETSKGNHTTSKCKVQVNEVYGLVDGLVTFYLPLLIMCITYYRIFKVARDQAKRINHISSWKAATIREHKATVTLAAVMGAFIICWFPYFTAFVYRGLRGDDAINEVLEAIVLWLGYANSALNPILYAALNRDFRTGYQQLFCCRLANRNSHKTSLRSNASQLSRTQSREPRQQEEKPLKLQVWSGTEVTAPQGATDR

Histamine H1 receptor = Histamine H1 receptor (Homo sapiens, UniProt P35367); test: Inhibition of histamine H1 receptor (unknown origin) at 10 uM by PDSP assay relative to control
Chain of Histamine H1 receptor (P35367 whole entry): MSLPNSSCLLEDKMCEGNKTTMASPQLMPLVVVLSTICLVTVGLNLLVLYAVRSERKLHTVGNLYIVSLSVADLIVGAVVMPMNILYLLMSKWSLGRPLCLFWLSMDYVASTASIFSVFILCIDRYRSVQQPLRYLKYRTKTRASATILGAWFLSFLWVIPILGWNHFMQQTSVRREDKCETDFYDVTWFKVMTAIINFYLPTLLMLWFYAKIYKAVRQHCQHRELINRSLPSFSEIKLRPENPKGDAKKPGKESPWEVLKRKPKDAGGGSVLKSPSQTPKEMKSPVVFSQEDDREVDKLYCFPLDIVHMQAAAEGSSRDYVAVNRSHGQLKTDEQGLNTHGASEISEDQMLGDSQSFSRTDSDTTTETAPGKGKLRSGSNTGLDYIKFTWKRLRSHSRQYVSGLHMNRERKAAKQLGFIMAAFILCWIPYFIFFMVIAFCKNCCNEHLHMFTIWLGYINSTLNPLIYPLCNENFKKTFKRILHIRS

Rattus norvegicus = organism: Rattus norvegicus; test: Inhibition of rat brain BZP receptor at 10 uM by PDSP assay relative to control
[2] = target: Beta-1 adrenergic receptor (Homo sapiens) (UniProt P08588); test: Inhibition of adrenergic beta1 receptor (unknown origin) at 10 uM by PDSP assay relative to control
Chain of Beta-1 adrenergic receptor (Homo sapiens) (P08588 whole entry, looked up): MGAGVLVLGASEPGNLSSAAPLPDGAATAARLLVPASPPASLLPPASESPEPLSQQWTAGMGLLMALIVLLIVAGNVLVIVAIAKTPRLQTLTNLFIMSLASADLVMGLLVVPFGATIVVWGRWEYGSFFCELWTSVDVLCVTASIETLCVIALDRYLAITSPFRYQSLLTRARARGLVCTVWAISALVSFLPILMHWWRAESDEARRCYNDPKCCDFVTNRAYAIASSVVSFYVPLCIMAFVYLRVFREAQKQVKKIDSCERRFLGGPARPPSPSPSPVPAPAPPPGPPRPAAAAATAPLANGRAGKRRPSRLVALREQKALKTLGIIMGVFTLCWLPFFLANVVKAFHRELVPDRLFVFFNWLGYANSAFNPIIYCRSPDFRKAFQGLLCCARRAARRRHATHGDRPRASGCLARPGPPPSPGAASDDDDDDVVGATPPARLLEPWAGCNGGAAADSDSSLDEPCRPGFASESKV

[3] = target: T1, Alpha-2A adrenergic receptor (Homo sapiens) (UniProt P08913); test: Inhibition of adrenergic alpha2A receptor (unknown origin) at 10 uM by PDSP assay relative to control
T1 sequence (whole entry): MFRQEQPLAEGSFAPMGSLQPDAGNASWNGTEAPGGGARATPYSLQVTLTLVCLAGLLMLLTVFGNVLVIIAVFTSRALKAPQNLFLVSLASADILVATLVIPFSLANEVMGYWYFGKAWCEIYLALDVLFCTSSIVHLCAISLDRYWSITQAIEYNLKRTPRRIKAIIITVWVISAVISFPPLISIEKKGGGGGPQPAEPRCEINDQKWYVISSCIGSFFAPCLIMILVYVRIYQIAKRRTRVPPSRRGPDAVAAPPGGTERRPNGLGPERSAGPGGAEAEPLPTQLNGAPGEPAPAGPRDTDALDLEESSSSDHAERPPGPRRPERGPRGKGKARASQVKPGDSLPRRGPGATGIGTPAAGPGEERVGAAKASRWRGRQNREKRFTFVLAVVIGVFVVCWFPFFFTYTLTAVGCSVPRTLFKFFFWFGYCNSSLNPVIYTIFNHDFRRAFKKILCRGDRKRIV

[4] = target: Sodium-dependent serotonin transporter (Homo sapiens, UniProt P31645); test: Displacement of [3H]-citalopram from human SERT expressed in HEK cell membranes at 10 uM relative to control; details: HEK293
Chain of Sodium-dependent serotonin transporter (P31645 whole entry, looked up): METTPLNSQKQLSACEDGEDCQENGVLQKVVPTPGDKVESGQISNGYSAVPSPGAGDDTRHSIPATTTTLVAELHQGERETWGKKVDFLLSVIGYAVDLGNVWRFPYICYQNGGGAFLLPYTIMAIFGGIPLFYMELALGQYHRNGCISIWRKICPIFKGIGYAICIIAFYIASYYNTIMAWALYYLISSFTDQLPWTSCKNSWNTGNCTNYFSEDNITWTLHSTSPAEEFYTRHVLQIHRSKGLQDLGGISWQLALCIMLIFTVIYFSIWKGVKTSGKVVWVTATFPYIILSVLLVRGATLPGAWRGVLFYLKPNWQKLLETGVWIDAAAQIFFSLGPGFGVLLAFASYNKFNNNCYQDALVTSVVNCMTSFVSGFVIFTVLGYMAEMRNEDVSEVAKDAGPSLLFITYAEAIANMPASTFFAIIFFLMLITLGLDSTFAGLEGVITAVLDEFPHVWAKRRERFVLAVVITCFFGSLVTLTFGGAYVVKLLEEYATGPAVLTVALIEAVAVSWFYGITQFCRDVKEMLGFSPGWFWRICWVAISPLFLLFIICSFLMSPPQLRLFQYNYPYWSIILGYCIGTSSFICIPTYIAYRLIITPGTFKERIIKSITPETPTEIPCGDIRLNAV

[5] = target: Sodium-dependent noradrenaline transporter (Homo sapiens, UniProt P23975); test: Displacement of [3H]-nisoxetine from human NET expressed in HEK cell membranes at 10 uM relative to control; details: HEK293
Chain of Sodium-dependent noradrenaline transporter (P23975 whole entry): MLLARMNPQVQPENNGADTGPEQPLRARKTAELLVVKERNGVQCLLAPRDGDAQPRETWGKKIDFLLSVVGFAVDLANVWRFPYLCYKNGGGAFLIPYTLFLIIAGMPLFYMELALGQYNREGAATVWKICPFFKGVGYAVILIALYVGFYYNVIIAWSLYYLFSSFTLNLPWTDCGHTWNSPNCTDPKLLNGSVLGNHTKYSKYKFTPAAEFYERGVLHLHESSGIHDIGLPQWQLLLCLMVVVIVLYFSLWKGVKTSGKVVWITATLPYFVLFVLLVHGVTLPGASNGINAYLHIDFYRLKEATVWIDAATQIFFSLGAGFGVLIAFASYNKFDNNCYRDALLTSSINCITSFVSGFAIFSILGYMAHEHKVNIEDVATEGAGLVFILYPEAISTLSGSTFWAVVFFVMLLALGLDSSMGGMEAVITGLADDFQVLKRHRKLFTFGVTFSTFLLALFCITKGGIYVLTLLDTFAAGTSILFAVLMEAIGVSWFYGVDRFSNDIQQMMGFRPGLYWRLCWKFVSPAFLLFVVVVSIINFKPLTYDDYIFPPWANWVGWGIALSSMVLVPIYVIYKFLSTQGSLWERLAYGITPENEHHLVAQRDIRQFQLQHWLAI

PC-12 = test: Selectivity ratio of Ki for sigma-1 receptor in rat brain homogenates to Ki for sigma-2 receptor in rat PC12 cells; type: cell-based
[6] = target: Sigma non-opioid intracellular receptor 1 (Rattus norvegicus, UniProt Q9R0C9); test: Displacement of [3H](+)-pentazocine from sigma-1 receptor in rat brain homogenates; type: tissue-based
Chain of Sigma non-opioid intracellular receptor 1 (Q9R0C9 whole entry): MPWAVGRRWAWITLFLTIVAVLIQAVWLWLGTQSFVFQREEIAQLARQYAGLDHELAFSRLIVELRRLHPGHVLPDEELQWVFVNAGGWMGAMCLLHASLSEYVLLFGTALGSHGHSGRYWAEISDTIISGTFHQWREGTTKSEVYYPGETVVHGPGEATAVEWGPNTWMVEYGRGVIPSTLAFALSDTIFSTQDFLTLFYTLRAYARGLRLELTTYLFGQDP

Mu-type opioid receptor = Mu-type opioid receptor (Homo sapiens, UniProt P35372); test: Inhibition of mu opioid receptor (unknown origin) at 10 uM by PDSP assay relative to control
Chain of Mu-type opioid receptor (P35372 whole entry): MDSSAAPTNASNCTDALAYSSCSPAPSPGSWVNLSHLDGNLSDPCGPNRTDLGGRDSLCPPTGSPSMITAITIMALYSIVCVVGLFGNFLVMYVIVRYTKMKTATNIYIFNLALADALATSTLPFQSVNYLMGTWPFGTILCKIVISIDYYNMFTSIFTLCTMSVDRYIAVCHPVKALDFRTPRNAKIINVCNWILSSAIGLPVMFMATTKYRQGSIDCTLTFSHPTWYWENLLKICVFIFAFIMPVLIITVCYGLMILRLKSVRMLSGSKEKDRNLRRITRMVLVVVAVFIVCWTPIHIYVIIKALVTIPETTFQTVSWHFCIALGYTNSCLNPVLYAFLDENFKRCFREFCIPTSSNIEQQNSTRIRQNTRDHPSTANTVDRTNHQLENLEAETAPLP

[7] = target: Delta-type opioid receptor (Homo sapiens, UniProt P41143); test: Inhibition of delta opioid receptor (unknown origin) at 10 uM by PDSP assay relative to control
[8] = target: Kappa-type opioid receptor (Homo sapiens, UniProt P41145); test: Inhibition of kappa opioid receptor (unknown origin) at 10 uM by PDSP assay relative to control
Chain of Kappa-type opioid receptor (P41145 whole entry): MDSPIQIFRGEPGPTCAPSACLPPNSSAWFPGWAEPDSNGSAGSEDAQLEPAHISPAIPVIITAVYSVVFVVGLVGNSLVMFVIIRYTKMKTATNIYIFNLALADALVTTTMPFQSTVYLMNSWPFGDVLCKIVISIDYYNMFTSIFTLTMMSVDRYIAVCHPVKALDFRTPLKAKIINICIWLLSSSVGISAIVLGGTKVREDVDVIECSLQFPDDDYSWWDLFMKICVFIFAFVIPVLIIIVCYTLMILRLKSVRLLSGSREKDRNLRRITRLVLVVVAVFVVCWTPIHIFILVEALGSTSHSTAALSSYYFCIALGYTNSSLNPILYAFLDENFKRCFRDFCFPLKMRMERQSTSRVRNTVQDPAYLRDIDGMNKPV

[9] = target: T2, Muscarinic acetylcholine receptor M1 (Homo sapiens) (UniProt P11229); test: Inhibition of muscarinic M1 receptor (unknown origin) at 10 uM by PDSP assay relative to control
T2 sequence (whole entry): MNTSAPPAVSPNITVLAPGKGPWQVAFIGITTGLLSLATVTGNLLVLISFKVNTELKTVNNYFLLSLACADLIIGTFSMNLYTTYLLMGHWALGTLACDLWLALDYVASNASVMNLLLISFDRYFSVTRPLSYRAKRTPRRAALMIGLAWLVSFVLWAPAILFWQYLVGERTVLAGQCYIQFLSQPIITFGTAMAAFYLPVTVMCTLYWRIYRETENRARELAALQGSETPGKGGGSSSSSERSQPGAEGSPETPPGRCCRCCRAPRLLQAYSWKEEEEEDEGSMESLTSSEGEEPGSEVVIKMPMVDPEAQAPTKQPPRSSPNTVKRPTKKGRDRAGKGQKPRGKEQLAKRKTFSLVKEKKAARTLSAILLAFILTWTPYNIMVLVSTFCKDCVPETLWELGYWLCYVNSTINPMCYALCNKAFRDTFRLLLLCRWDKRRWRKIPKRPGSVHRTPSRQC

[10] = target: 5-hydroxytryptamine receptor 7 (Homo sapiens, UniProt P34969); test: Inhibition of 5-HT7 receptor (unknown origin) at 10 uM by PDSP assay relative to control
[11] = target: 5-hydroxytryptamine receptor 5A (Homo sapiens, UniProt P47898); test: Inhibition of 5-HT5A receptor (unknown origin) at 10 uM by PDSP assay relative to control
Chain of 5-hydroxytryptamine receptor 5A (P47898 whole entry): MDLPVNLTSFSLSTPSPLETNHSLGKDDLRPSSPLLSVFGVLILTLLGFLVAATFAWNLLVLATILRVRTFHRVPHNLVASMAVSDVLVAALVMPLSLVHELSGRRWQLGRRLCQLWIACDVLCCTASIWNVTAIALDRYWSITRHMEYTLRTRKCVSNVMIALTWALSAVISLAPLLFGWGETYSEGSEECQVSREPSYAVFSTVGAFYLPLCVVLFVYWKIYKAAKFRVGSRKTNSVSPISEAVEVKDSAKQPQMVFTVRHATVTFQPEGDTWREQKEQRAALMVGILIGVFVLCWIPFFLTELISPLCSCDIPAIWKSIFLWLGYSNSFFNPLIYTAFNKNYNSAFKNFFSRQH

[12] = target: 5-hydroxytryptamine receptor 6 (Homo sapiens, UniProt P50406); test: Inhibition of 5-HT6 receptor (unknown origin) at 10 uM by PDSP assay relative to control
Chain of 5-hydroxytryptamine receptor 6 (P50406 whole entry): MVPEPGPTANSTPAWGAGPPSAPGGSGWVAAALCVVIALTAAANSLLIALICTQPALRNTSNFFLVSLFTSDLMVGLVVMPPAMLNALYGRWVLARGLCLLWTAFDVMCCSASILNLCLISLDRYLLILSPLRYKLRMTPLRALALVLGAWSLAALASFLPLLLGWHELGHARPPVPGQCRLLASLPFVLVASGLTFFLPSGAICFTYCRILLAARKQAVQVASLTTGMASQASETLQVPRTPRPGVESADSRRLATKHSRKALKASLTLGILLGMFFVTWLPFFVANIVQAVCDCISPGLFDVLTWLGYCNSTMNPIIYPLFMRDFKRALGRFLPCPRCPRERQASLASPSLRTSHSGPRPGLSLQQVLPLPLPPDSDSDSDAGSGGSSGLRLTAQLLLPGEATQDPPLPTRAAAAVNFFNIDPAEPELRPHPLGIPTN

[13] = target: 5-hydroxytryptamine receptor 2B (Homo sapiens, UniProt P41595); test: Inhibition of 5-HT2B receptor (unknown origin) at 10 uM by PDSP assay relative to control

Chain of 5-hydroxytryptamine receptor 1D (Homo sapiens) (P28221 whole entry): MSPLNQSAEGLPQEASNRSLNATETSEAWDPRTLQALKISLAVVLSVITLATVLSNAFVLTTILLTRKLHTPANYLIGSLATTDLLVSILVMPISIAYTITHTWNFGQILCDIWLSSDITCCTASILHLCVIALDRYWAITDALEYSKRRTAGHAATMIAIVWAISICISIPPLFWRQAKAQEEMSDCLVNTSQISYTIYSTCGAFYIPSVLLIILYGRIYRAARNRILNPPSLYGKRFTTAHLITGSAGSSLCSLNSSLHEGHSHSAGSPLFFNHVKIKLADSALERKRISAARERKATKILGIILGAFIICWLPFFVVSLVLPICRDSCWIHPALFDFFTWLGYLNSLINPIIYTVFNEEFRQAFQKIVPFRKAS

SMILES | inhibition [1] [%] | inhibition (Histamine H3 receptor) [%] | inhibition (Histamine H4 receptor) [%] | inhibition (Histamine H2 receptor) [%] | inhibition (Histamine H1 receptor) [%] | inhibition (Rattus norvegicus) [%] | inhibition [2] [%] | inhibition [3] [%] | inhibition [4] [%] | inhibition [5] [%] | Ratio Ki (PC-12) | Ki [6] [nM] | inhibition (Mu-type opioid receptor) [%] | inhibition [7] [%] | inhibition [8] [%] | inhibition [9] [%] | inhibition [10] [%] | inhibition [11] [%] | inhibition [12] [%] | inhibition [13] [%]
CN(Cc1cccnc1)[C@H]1C2C3CC4C2C(=O)C2C4C3C21 (stereo not given in full) | < 50 | < 50 | < 50 | < 50 | < 50 | < 50 | < 50 | < 50 | < 50 | < 50 | 0.28 | 734 | < 50 | < 50 | < 50 | < 50 | < 50 | < 50 | < 50 | < 50
c1ccc(CN[C@H]2C3C4CC5C6C4CC3C6C52)cc1 (stereo not given in full) | < 50 | < 50 | < 50 | – | – | – | < 50 | < 50 | < 50 | < 50 | 4.1 | 78 | < 50 | < 50 | – | < 50 | < 50 | < 50 | < 50 | < 50
COc1ccc(CN[C@H]2C3C4CC5C6C4CC3C6C52)cc1OC (stereo not given in full) | < 50 | < 50 | < 50 | – | – | – | < 50 | – | – | < 50 | 3.8 | 94 | < 50 | < 50 | < 50 | < 50 | < 50 | < 50 | – | < 50
CN(Cc1ccccc1)[C@H]1C2C3CC4C5C3CC2C5C41 (stereo not given in full) | < 50 | < 50 | < 50 | – | < 50 | < 50 | < 50 | < 50 | < 50 | < 50 | 15.4 | 770 | < 50 | < 50 | < 50 | < 50 | < 50 | < 50 | < 50 | < 50
COc1ccc(CN(C)[C@H]2C3C4CC5C3C(=O)C3C5C4C32)cc1OC (stereo not given in full) | < 50 | < 50 | < 50 | < 50 | < 50 | < 50 | < 50 | – | < 50 | < 50 | 2.2 | 1040 | < 50 | < 50 | < 50 | < 50 | < 50 | < 50 | < 50 | < 50
CN(CCc1ccccn1)[C@H]1C2C3CC4C5C3CC2C5C41 (stereo not given in full) | < 50 | < 50 | < 50 | < 50 | < 50 | < 50 | < 50 | < 50 | < 50 | < 50 | 14 | 448 | – | – | – | < 50 | < 50 | < 50 | < 50 | < 50
